Data from BindingDB's records for patent US12054475 (Kayothera, 2024).

Tests used:
[1] = target: T1, Retinal dehydrogenase 2 (Homo sapiens, UniProt O94788); assay: Aldh1a2 Enzyme Inhibition Assay
T1 sequence (O94788 whole entry): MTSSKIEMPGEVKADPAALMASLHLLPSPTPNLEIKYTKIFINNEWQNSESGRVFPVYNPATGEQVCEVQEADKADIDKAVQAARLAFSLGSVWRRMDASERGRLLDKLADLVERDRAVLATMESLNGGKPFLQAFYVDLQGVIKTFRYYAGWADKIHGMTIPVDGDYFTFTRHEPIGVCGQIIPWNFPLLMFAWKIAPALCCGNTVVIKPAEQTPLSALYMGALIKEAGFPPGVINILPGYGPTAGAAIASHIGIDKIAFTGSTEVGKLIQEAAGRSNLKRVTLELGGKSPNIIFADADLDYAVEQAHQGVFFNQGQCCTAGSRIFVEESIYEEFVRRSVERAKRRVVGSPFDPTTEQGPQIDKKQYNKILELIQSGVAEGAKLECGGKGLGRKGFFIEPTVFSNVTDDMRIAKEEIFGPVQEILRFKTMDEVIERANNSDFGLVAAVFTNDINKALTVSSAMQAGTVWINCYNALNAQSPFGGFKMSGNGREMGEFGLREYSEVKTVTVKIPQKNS

[2] = target: T2, Retinal dehydrogenase 2 (UniProt Q62148); assay: Aldh1a2 Enzyme Inhibition Assay
T2 sequence (Q62148 whole entry): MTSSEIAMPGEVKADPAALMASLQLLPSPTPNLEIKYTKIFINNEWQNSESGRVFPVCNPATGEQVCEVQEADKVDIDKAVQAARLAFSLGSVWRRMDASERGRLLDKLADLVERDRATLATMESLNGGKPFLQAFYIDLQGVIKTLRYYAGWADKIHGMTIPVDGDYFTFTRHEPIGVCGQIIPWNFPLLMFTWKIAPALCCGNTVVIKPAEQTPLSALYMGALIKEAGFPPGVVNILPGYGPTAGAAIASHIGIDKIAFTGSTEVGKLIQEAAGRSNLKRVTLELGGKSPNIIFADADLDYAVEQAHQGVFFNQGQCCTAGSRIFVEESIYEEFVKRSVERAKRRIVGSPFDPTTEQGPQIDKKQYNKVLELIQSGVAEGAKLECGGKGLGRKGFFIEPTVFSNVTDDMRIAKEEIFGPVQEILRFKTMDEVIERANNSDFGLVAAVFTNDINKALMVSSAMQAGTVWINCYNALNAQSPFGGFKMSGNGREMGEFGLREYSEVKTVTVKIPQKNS

IC50 [1]: > 10 µM
IC50 [2]: > 10 µM
Structure (SMILES): CCC1COCCN1C(=O)Nc1cc(C)c2c(c1)CCC(=O)N2 (racemic) [US12054475, Compound 193]
